Assay [1] deals with human umbilical vein endothelial cells (HUVEC). As to the kind of experiment: MTT cell viability assay, HUVEC. Particulars: 48 h, preliminary results. The assay is classed as cell-based. An excerpt: (§1) Human melanomas (SK-MEL-28), pancreatic adenocarcinomas (MIA-PaCa-2) and murine renal adenocarcinoma cells (RENCA) were obtained and cultured according to the instructions of the American Type Culture Collection (ATCC, Manassas, VA). Human dermal fibroblast cells (HDFa) were obtained from Invitrogen. Endothelial cells were obtained from human umbilical veins (HUVECs), as previously described^11. The study received prior approval from the Research Ethics Committee and the free and informed consent form was obtained from female donors. HUVECs were seeded in T75 flasks previously covered with 2% gelatin and cultured in RPMI medium, supplemented with 10% fetal bovine serum, L-glutamine (2 mM), streptomycin sulfate ([…]), penicillin (100 U/ml) sodium pyruvate ([…]), 2-mercaptoethanol ([…]), ECGF ([…]) and heparin (45 μg/ml), pH 7.4. In all experiments, HUVEC were used in the second or third passages. All cell lines were routinely cultured in a humidified 5% CO2 incubator at 37° C.
(§2) Cell viability was measured by the 3-(4,5-dimethylthiazol-2-yl)-2,5-diphenyltetrazolium bromide (MTT) assay. […] Afterwards, the medium was discarded, the dark blue crystalline formazan product was dissolved in […] of dimethyl sulfoxide (DMSO), and the absorbance was measured in a Spectra MAX 190 microplate reader (Molecular Devices, Sunnyvale, USA) at 540 nm.
On the technique in general: Tetrazolium dyes change colour on reduction, which living cells bring about.

Another assay relates to SK-MEL-28. Nature of the assay: Cell uptake study with Alexa Fluor 488 labelled molecules, SK-MEL-28. The assay is classed as cell-based, human. Particulars: for Uptake by tumor cells: Alexa Fluor 488 labelled. From the text: (§3) The compound of the invention (C-ter) was chemically coupled with the amine reactive dye (Alexa fluor 488 […] tetra fluorophenyl ester (TFP)) using the Microscale Alexa Fluor® 488 Protein Labeling kit (Molecular Probes), following the manufacturer's instructions. Other entities (Amblyomin-X and its fragment called Kunitz domain) were also modified as described above, for comparative analysis.
(§4) The dye-conjugated protein was named 488-Amblyomin-X. Briefly, cells (10^4 cells/well) were seeded into 96-well plates. […] The cells were then incubated with Alexa Fluor 555 transferrin (100 μg/ml), the cholera toxin B subunit Alexa Fluor 555 (50 μg/ml) or Alexa Fluor 555 dextran (1 mg/ml) in binding medium to 37° C. for 20 min. Nuclei were stained with Hoechst 332. Then, green and red fluorescence were monitored using a Molecular Devices ImageXpress Micro Confocal plate scanning microscope (Molecular Devices, Sunnyvale, CA) or using LSM 510 Meta confocal microscope (Zeiss, Jena, Germany) followed by evaluation of overlap between 488-Amblyomin-X and endocytosis markers using MetaXpress software (Molecular Devices, Sunnyvale, CA).

The subject of assay [2] is MIA PaCa-2 pancreatic adenocarcinoma cells. Nature of the assay: MTT cell viability assay, MIA PaCa-2. The assay is classed as cell-based, human. Particulars: MIA PaCa-2, 48 h, increasing concentrations; Amblyomin-X 20 μM.
Text: as §1, §2

In the next assay the test system is SK-MEL-28 cells. As to the kind of experiment: Role of PS in uptake (Na3VO4 or Annexin V pretreatment). The assay is classed as cell-based, human. As for the experimental part:
To investigate the role of PS in C-ter uptake, cells were pretreated with Annexin V (5 μg/mL) or Na3VO4 (25 μM) and then incubated with fluorochrome-conjugated molecules for 4 hours.

For a further assay, the system named is Mia PaCa-2. Nature of the assay: Cell uptake study with Alexa Fluor 488 labelled molecules, Mia PaCa-2. The assay is classed as cell-based, human. The settings on record: for Uptake by tumor cells: Alexa Fluor 488 labelled.
Text: as §3, §4

Assay [3] relates to murine renal adenocarcinoma cells (RENCA). Nature of the assay: MTT cell viability assay, RENCA. Particulars: 48 h, preliminary results. The assay is classed as cell-based.
Text: as §1, §2

In another assay the test system is HDFa. As to the kind of experiment: Cell uptake study (confocal), HDFa. The assay is classed as cell-based, human. The settings on record: 4 h, preliminary experiments.
Text: as §3
(§5) The dye-conjugated protein was named 488-Amblyomin-X. Briefly, cells (10^4 cells/well) were seeded into 96-well plates. Once stabilized, the culture medium was replaced and cells were incubated with 488-Amblyomin-X (20 μM) at 37° C. for 2 h, 4 h and 24 h. The cells were then incubated with Alexa Fluor 555 transferrin (100 μg/ml), the cholera toxin B subunit Alexa Fluor 555 (50 μg/ml) or Alexa Fluor 555 dextran (1 mg/ml) in binding medium to 37° C. for 20 min. Nuclei were stained with Hoechst 332. Then, green and red fluorescence were monitored using a Molecular Devices ImageXpress Micro Confocal plate scanning microscope (Molecular Devices, Sunnyvale, CA) or using LSM 510 Meta confocal microscope (Zeiss, Jena, Germany) followed by evaluation of overlap between 488-Amblyomin-X and endocytosis markers using MetaXpress software (Molecular Devices, Sunnyvale, CA).

The subject of a further assay is HUVEC. As to the kind of experiment: Cell uptake study (confocal), HUVEC. Particulars: 4 h, preliminary experiments. The assay is classed as cell-based, human.
Text: as §3, §5

A further assay relates to Tumor cell lines. Nature of the assay: Co-localization with endocytosis and intracellular markers. The assay is classed as cell-based, human. As for the experimental part: as §5
Tumor cells were cultured in 96-well plates (10^4 cells/well) and treated with 488-Amblyomin-X (20 μM) to indicate times. Cells were washed twice with PHEM-glycine buffer (2 mM HEPES, 10 mM EGTA, 2 mM MgCl2, 60 mM Pipes, 100 mM glycine, pH 6.9) and fixed with 4% paraformaldehyde for 3 h at room temperature. The washing step was repeated and then the cells were incubated with a cell permeabilizing solution (0.1% Tween in PHEM) for 5 minutes at room temperature. Samples were washed and incubated with 1% BSA blocking solution for 30 minutes at room temperature. Next, the primary antibody was incubated overnight at 4° C.: (i) caveolin-1 anti-human mouse 1:100 (Santa Cruz Biotechnology, Inc., USA); (ii) 1:50 anti-human LAMP-2 rabbit (Abcam). […] Next, green and red fluorescence were monitored by a Molecular Devices ImageXpress Micro Confocal Plate Scanning Microscope (Molecular Devices, Sunnyvale, CA) followed by evaluation of overlap between 488-Amblyomin-X and endocytosis markers using MetaXpress software (Molecular Devices, Sunnyvale, CA) or vesicle interactions by Imaris software.

Assay [4] concerns human dermal fibroblasts (HDFa). Nature of the assay: MTT cell viability assay, HDFa. The assay is classed as cell-based. The settings on record: 48 h, preliminary results.
Text: as §1, §2

Assay [5] has as its system SK-MEL-28 human melanoma cells. As to the kind of experiment: MTT cell viability assay, SK-MEL-28. The assay is classed as cell-based. Particulars: SK-MEL-28, 48 h, increasing concentrations; Amblyomin-X 20 μM.
Text: as §1, §2

The test system of another assay is HUVECs. As to the kind of experiment: Charge delivery capacity, uptake of Alexa 488 labelled peptides by HUVECs (HCS). The assay is classed as cell-based, human. Particulars: for uptake by HUVECs (HCS): 10 μM; for detection within HUVECs (HCS): after 4 h, 0.5, 1, 10 and 20 μM. As for the experimental part:
Endothelial cell culture was obtained from umbilical cords by digestion of umbilical cord veins with collagenase as described previously (19) with some modifications (20). Endothelial cells between the first and third passage were used for all experiments. Cells were seeded in 96-well culture plates (Advance, Greiner), special for immunofluorescence, at a density of 8×10^3 cells/well pre-coated with 2% (w/v) gelatin in EGM®-2 BulletKit® medium for HUVECs (Lonza, CC-3162) allowed to seed at 37° C. in a humidified atmosphere of 5% CO2. Cells were treated and incubated in RPMI medium containing 1% fetal bovine serum (FBS) and Alexa-Fluor 488 labeled peptides (C-ter/Seq ID No 1, P4/Seq ID No 2, or P4-Cter/Seq ID No 3) at different concentrations and times. After treatment, the cells were fixed with 4% paraformaldehyde and analyzed in ImageXpress Micro Confocal High-Content Imaging (HCS, Molecular Devices) in Widefield mode and the number of vesicles containing the peptides in the cells was quantified using MetaXpress High-Content Image Acquisition and Analysis Software (Molecular Devices).
Peptides Cter, P4 and P4-C-ter were labeled with cell-impermeable Alexa Fluor 488. The capacity of P4 and P4-Cter peptides bound to Alexa 488 by HUVECs at 1 h, 2 h and 4 h was analyzed using different concentrations: 0.5 μM, 1 μM, 10 μM and 20 μM (FIG. 9). This was compared with uptake of C-ter peptide linked to Alexa 488 (concentration of 0.5 μM, 1 μM, 10 μM and 20 μM) after 4 hours, as shown in previous experiments for SK-MEL-28 (FIG. 3).

Where no end group is shown, it is not given here.

Consider “C-ter: polypeptide of SEQ ID No. 1, 50 amino acids, carboxy-terminal end of Amblyomin-X, prepared by chemical synthesis (EEQTHFHFESPKLISFKVQDYWILNDIMKKNLTGISLKSEEEDADSGEID)”, for which the “cell viability (MTT)” value in assay [1] is given as “no change was observed”; in assay [2] it was “no change was observed”; in assay [3] it was “decreasing the viability of RENCA by 1 μM”; in assay [4], “no change was observed”; in assay [5] it was “no change was observed”. Besides, the “cells positive for nuclear translocation” value in the assay with SK-MEL-28 (SK-MEL-28) and in the assay with Mia PaCa-2 (MIA PaCa-2) was “few cells were positive” each time. In addition, the “uptake by cells (green fluorescence, confocal)” value with SK-MEL-28 (SK-MEL-28, 20 μM, 4 h, Alexa Fluor 488 complexed) is “taken up”. Besides, the “Uptake by tumor cells” value worked out at 30.84 ± 17.2 with SK-MEL-28 (SK-MEL-28, 0.25 h); 35.56 ± 21.09 with SK-MEL-28 (SK-MEL-28, 0.5 h); 62.17 ± 11.20 in the assay on SK-MEL-28 (SK-MEL-28, 1 h); 558.48 ± 189.00 in the assay on SK-MEL-28 (SK-MEL-28, 2 h); 1210.74 ± 379.14 with SK-MEL-28 (SK-MEL-28, 4 h); 3.45 ± 1.34 in the assay with Mia PaCa-2 (Mia PaCa-2, 0.25 h). The “Uptake by tumor cells” value is reported as 4.84 ± 1.95 in the assay with Mia PaCa-2 (Mia PaCa-2, 0.5 h); 13.74 ± 7.15 in the assay with Mia PaCa-2 (Mia PaCa-2, 1 h); 604.99 ± 24.47 with Mia PaCa-2 (Mia PaCa-2, 2 h); 976.55 ± 74.55 in the assay on Mia PaCa-2 (Mia PaCa-2, 4 h). Further, the “uptake after pretreatment with Na3VO4” value in the assay on SK-MEL-28 cells (SK-MEL-28, Na3VO4 pretreatment, then 4 h) was “not affected”. Besides, in the assay with SK-MEL-28 cells (pretreatment with Na3VO4 or Annexin V), the “tumor cell penetration after pretreatment with Na3VO4 or Annexin V” value is recorded as “retains its ability to penetrate tumor cells”. The “uptake by non-tumor cells” value with HDFa and in the assay with HUVEC was “uptake by these cells” each time. For the same molecule, the “overlap with endocytosis markers (dextran, CTxB, transferrin)” value with Tumor cell lines (Alexa Fluor 555 labelled markers, shortest treatment time) is “the highest were with CTxB”. Moreover, the “co-localization with late endosomal markers” value in the assay on Tumor cell lines (Lyso Tracker, LAMP-2) is “found in co-localization with late endosomal markers, Lyso Tracker and LAMP-2”. The “co-localization with cav-1” value in the assay on Tumor cell lines (indirect immunofluorescence) is “occurred mainly after 4 hours of treatment”.

For “P4-Alexa 488: peptide P4 (SEQ ID No. 2) labeled with Alexa Fluor 488 (YAIGYSSKDYK; also: Alexa Fluor 488 label) [reference compound]”, the “uptake by HUVECs (HCS)” value in the assay with HUVECs (4 h) is listed as “poorly detected”. In the assay on HUVECs, the “detection within HUVECs (HCS)” value is “not detected within cells”.

B1: P4-Cter-Alexa488: hybrid peptide P4-Cter (SEQ ID No. 3) labeled with Alexa Fluor 488 (conjugate)
chain: YAIGYSSKDYKEEQTHFHFESPKLISFKVQDYWILNDIMKKNLTGISLKSEEEDADSGEID
modifications: also: Alexa Fluor 488 label
As for B1, the “uptake by HUVECs (HCS)” value in the assay on HUVECs (1 h) is given as “efficiently absorbed”. Besides, the “detection within HUVECs (HCS)” value in the assay on HUVECs is “captured and quantified”.

The record behind these values is patent publication US12303547B2, “Compound, use, pharmaceutical composition, method of diagnosis, method of treatment, and method of transportation and/or internalization of a compound into eukaryotic cells” (priority 2018, dated 2025).
